Type in all cases: functional
In experiment [1] the target is T1, Muscarinic acetylcholine receptor M1 (Homo sapiens) (UniProt P11229).
T1 sequence (whole entry): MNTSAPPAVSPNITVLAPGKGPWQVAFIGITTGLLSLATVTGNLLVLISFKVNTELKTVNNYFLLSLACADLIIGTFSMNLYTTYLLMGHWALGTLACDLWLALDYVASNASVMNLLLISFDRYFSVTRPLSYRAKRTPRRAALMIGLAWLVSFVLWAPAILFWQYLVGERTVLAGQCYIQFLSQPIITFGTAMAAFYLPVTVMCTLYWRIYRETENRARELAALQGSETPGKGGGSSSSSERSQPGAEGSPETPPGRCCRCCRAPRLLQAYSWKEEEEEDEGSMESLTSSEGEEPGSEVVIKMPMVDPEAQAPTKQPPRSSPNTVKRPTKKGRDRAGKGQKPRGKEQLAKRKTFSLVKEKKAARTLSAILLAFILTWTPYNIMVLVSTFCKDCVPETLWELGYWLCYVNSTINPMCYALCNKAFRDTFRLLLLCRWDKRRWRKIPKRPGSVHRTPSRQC
As to the kind of experiment: Positive allosteric modulator activity at human muscarinic M1 receptor up to 30 uM by calcium mobilization assay. For orientation: A change in cytosolic calcium serves as a functional read-out for many receptors and channels.

Experiment [2] concerns the target T2, Muscarinic acetylcholine receptor M1 (Homo sapiens, UniProt P11229).
T2 sequence (P11229 whole entry): T1 sequence (whole entry)
As to the kind of experiment: Positive allosteric modulator activity at human muscarinic M1 receptor by calcium mobilization assay.

Experiment [3] addresses T1, Muscarinic acetylcholine receptor M1 (Homo sapiens). The experiment in a line: Positive allosteric modulator activity at human muscarinic M1 receptor relative to acetylcholine by calcium mobilization assay. Also on record: concentration or dose not given beside the values.
Experiment [4] has the same target. The experiment in a line: Positive allosteric modulator activity at human muscarinic M1 receptor assessed as fold shift of acetylcholine concentration curve to the left at 30 uM by calcium mobilization assay relative to untreated acetylcholine control.
Experiment [5] has as its target T3, Muscarinic acetylcholine receptor M4 (Homo sapiens) (UniProt P08173).
T3 sequence (whole entry): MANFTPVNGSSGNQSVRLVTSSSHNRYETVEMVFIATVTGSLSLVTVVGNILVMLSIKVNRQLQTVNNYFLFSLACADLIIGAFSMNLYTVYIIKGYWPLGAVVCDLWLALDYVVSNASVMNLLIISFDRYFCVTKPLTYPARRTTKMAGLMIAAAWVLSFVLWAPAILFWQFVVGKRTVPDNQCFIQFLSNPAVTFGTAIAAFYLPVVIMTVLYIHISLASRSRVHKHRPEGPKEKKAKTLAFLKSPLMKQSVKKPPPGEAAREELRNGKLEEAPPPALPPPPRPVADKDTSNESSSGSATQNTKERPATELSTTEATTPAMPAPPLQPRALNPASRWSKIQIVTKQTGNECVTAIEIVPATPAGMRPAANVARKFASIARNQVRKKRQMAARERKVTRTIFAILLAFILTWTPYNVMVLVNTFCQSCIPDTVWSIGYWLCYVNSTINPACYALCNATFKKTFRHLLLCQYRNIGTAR
As to the kind of experiment: Positive allosteric modulator activity at human muscarinic M4 receptor by calcium mobilization assay.

Structures are written as SMILES. Active and inactive are the calls of the source. The rule behind the calls is not given here.

In ChEMBL document CHEMBL2311253, “Isatin replacements applied to the highly selective, muscarinic M1 PAM ML137: continued optimization of an MLPCN probe molecule” (Bioorg Med Chem Lett, 2013) one finds Activity, EC50 and fold change (FC) data, which are given here for 40 compounds.

As usually defined, the EC50 is the midpoint of the concentration-response curve.

As to `Cn1cc(-c2ccc(Cn3c4ccccc4c4cccnc43)c(F)c2)cn1`, in experiment [1], the result was inactive. Still for that read-out and setting: under `Cn1cc(-c2ccc(CN3C(=O)CCCc4ccccc43)c(F)c2)cn1` stands “inactive”.

Consider `Cn1cc(-c2ccc(CN3C(=O)c4cccc5cccc3c45)c(F)c2)cn1`, for which the result in experiment [1] was inactive. Same read-out and setting: under `Cn1cc(-c2ccc(CN3CC(c4ccccc4)CC3=O)c(F)c2)cn1` (centres undefined) stands “inactive”. In the case of `CCn1cc(-c2ccc(CN3C(=O)C(O)(C(F)(F)F)c4ccccc43)c(F)c2)cn1` (racemic), the EC50 in experiment [2] came out at 3.3 µM. The Activity in experiment [3] amounted to 37%.

As for `Cn1cc(-c2ccc(Cn3c(=O)ccc4ccccc43)c(F)c2)cn1`, in experiment [2], the EC50 is above 10 µM. Moreover, the Activity in experiment [3] was determined as 51%. As for `CC(C)n1cc(-c2ccc(CN3C(=O)C(O)(C(F)(F)F)c4ccccc43)c(F)c2)cn1` (racemic), the outcome in experiment [1] was inactive. The same measure, in the same setting: the value for `COc1nc2ccccc2n1Cc1ccc(-c2cnn(C)c2)cc1F` was “inactive”.

Regarding `CC(=O)N(Cc1ccc(-c2cnn(C)c2)cc1F)c1ccccc1`, the outcome in experiment [1] was inactive.

With `Cn1cc(-c2ccc(CN3C(=O)C(O)(C(F)(F)F)c4ccccc43)c(Cl)c2)cn1` (racemic), the EC50 in experiment [2] is above 10 µM. The Activity in experiment [3] stood at 29%. In the case of `Cn1cc(-c2ccc(CN3C(=O)C(N)c4ccccc43)c(F)c2)cn1` (racemic), in experiment [2], the EC50 came out at 1.3 µM. Further, the Activity in experiment [3] was 50%. In the same order, the values of `Cn1cc(-c2ccc(CN3C(=O)COc4ccccc43)c(F)c2)cn1` are 5.2 µM and 52%. In the same order, the values of `Cn1cc(-c2ccc(CN3c4ccccc4CS3(=O)=O)c(F)c2)cn1` are above 10 µM and 41%. As to `Cn1cc(-c2ccc(CN3C(=O)C(=O)c4ccccc43)c(F)c2)cn1`, the fold change (FC) in experiment [4] was determined as 2.7. In addition, the EC50 in experiment [2] came out at 0.6 µM. In addition, in experiment [3], the Activity amounted to 45%. For `Cn1cc(-c2ccc(CN3C(=O)C(O)(C(F)(F)F)c4ccccc43)cc2)cn1` (racemic), the fold change (FC) in experiment [4] came to 15.2. Besides, the EC50 in experiment [2] came to 4 µM. Moreover, the Activity in experiment [3] was 66%. Consider `Cn1cc(-c2ccc(CN3CCSc4ccccc43)c(F)c2)cn1`, for which, in experiment [1], the result was inactive.

Take `Cn1cc(-c2ccc(CN3C(=O)C(C)(N)c4ccccc43)c(F)c2)cn1` (racemic): the EC50 in experiment [2] was above 10 µM. In addition, the Activity in experiment [3] amounted to 28%. In the case of `Cn1cc(-c2ccc(Cn3c4ccccc4c4nccnc43)c(F)c2)cn1`, the outcome in experiment [1] was inactive. As for `Cn1cc(-c2ccc(CN3C(=O)C(O)(C(F)(F)F)c4ccccc43)c(F)c2)cn1` (racemic), the fold change (FC) in experiment [4] was 7.4. Further, the Activity in experiment [3] was determined as 51%. Turning to `Cn1cc(-c2ccc(CN3CCc4ccccc43)c(F)c2)cn1`, the outcome in experiment [1] was inactive. As for `Cn1cc(-c2ccc(CN3C(=O)C(O)(C(F)(F)F)c4ccccc43)c(F)c2)cn1` (stereo in doubt; 23h), the fold change (FC) in experiment [4] was found to be 12. Also, the Activity in experiment [3] came to 57%. For `Cn1cc(-c2ccc(CN3C(=O)CSc4ccccc43)c(F)c2)cn1`, the EC50 in experiment [2] was determined as 3.2 µM. The Activity in experiment [3] came to 30%. The matching figures for `CN(C)C1(C)C(=O)N(Cc2ccc(-c3cnn(C)c3)cc2)c2ccccc21` (racemic): above 10 µM and 48%. For `Cn1cc(-c2ccc(Cn3c(=O)[nH]c4ccccc43)c(F)c2)cn1`, the result in experiment [1] was inactive. Regarding `O=C1N(Cc2ccc(-c3cn[nH]c3)cc2F)c2ccccc2C1(O)C(F)(F)F` (racemic), in experiment [1], the result was inactive. Consider `CC1C(=O)N(Cc2ccc(-c3cnn(C)c3)cc2F)c2ccccc21` (racemic), for which the EC50 in experiment [2] was above 10 µM. In addition, the Activity in experiment [3] amounted to 53%. The matching figures for `Cn1cc(-c2ccc(CN3C(=O)CCc4ccccc43)c(F)c2)cn1`: 5.6 µM and 44%.

Consider `Cn1cc(-c2ccc(CN3C(=O)OCc4ccccc43)c(F)c2)cn1`, for which, in experiment [2], the EC50 was above 10 µM. In experiment [3], the Activity came to 62%. Consider `Cn1cc(-c2ccc(CN3C(=O)C(O)(CF)c4ccccc43)c(F)c2)cn1` (racemic), for which, in experiment [4], the fold change (FC) was found to be 8. In experiment [2], the EC50 is above 10 µM. Moreover, the Activity in experiment [3] amounted to 59%.

Consider `Cn1cc(-c2ccc(Cn3ccccc3=O)c(F)c2)cn1`, for which the result in experiment [1] was inactive. Same read-out and setting: under `Cn1cc(-c2ccc(CN3C(=O)C(F)(F)c4ccccc43)c(F)c2)cn1` stands “inactive”. Same read-out and setting: the value for `Cn1cc(-c2ccc(CN3C(=O)C(O)(C(F)(F)F)c4ccccc43)c(F)c2)cn1` (centres undefined) was “inactive”. In the case of `Cn1cc(-c2ccc(CN3C(=O)C(C)(O)c4ccccc43)c(F)c2)cn1` (racemic), in experiment [4], the fold change (FC) is 6.5. In addition, the EC50 in experiment [2] is above 10 µM. In addition, the Activity in experiment [3] is 49%. On to `Cn1cc(-c2ccc(CN3C(=O)C(F)(C(F)(F)F)c4ccccc43)c(F)c2)cn1` (racemic), for which the EC50 in experiment [2] was above 10 µM. The Activity in experiment [3] was determined as 25%.

In the case of `CCCn1cc(-c2ccc(CN3C(=O)C(O)(C(F)(F)F)c4ccccc43)c(F)c2)cn1` (racemic), the outcome in experiment [1] was inactive. Take `Cn1cc(-c2ccc(CN3C(=O)Cc4ccccc43)c(F)c2)cn1`: in experiment [4], the fold change (FC) is 27.2. For the same compound, the EC50 in experiment [2] is 2.4 µM. Further, the Activity in experiment [3] amounted to 64%. Also, in experiment [5], the outcome was Active. For `Cn1cc(-c2ccc(CN3C(=O)C[S+]([O-])c4ccccc43)c(F)c2)cn1` (centres undefined), the EC50 in experiment [2] is above 10 µM. For the same compound, in experiment [3], the Activity was 46%. In the same order, the values of `Cn1cc(-c2ccc(CN3C(=O)NCc4ccccc43)c(F)c2)cn1` are above 10 µM and 53%. For the compound `COC1(C(F)(F)F)C(=O)N(Cc2ccc(-c3cnn(C)c3)cc2F)c2ccccc21` (racemic), the outcome in experiment [1] was inactive. On to `Cn1cc(-c2ccc(CN3C(=O)CS(=O)(=O)c4ccccc43)c(F)c2)cn1`, for which the EC50 in experiment [2] was above 10 µM. In experiment [3], the Activity was found to be 36%.
